Measured values reported in US20180155757A1, “IDENTIFICATION OF BACTERIA THAT ARE RESISTANT TO CARBAPENEMS BY MEMBRANE IMPERVIOUSNESS” (BIOMÉRIEUX, priority 2015, published 2018).

Columns and labels:
Experiment in all cases: Etest MIC of indicator carbapenems on MH II agar without/with PMBN
Assay type in all cases: cell-based
[1] = tested on: E. cloacae 1204052 (membrane impermeability)
Method in brief: (§1)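 Etest imipenem/ertapenem/meropenem (IM 32, ETP 32, MP 32). Medium: MH II agar, PMBN 0 to ⅕ MIC. Inoculum: 0.5 McFarland, 0.85% NaCl, swabbed. Read: 16–20 h at 35° C.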

[2] = tested on: E. cloacae 1204051 (membrane impermeability)
Method in brief: as §1

[3] = tested on: K. pneumoniae 1012142 (KPC-2 producer)
Method in brief: as §1

[4] = tested on: E. cloacae 1204058 (membrane impermeability); details: in µg/mL
Method in brief: as §1

[5] = tested on: K. pneumoniae 1108003 (KPC-3 producer)
Method in brief: as §1

[6] = tested on: E. cloacae 1204056 (membrane impermeability)
Method in brief: as §1

[7] = tested on: K. pneumoniae KP 63 (porin−); details: Klebsiella pneumoniae
Method in brief: as §1

[8] = tested on: E. cloacae 1008080 (IMP producer); details: in µg/mL
Method in brief: as §1

[9] = tested on: E. coli 1008078 (VIM producer)
Method in brief: as §1

[10] = tested on: K. pneumoniae 1204036 (membrane impermeability)
Method in brief: as §1

[11] = tested on: E. cloacae 1204153 (membrane impermeability); details: in µg/mL
Method in brief: as §1

[12] = tested on: E. cloacae 1008074 (VIM producer)
Method in brief: as §1

[13] = tested on: K. pneumoniae 1204039 (membrane impermeability)
Method in brief: as §1

[14] = tested on: E. cloacae 1204053 (membrane impermeability)
Method in brief: as §1

[15] = tested on: E. cloacae 1109137 (OXA-48 producer)
Method in brief: as §1

[16] = tested on: Enterobacter aerogenes EA 5 (porin−); details: Klebsiella aerogenes, E. aerogenes EA 5 (porin−)
Method in brief: as §1

E. coli SAB 100 (porin−) = details: Escherichia coli
Method in brief: as §1

SMILES: C[C@@H](O)[C@H]1C(=O)N2C(C(=O)O)=C(S[C@@H]3CN[C@H](C(=O)N(C)C)C3)[C@H](C)[C@H]12 [MP, meropenem]
- MIC ([1]; [PMBN] 0, Table 4a): 6 µg/mL
- MIC ([1]; [PMBN] 100, Table 4a): 0.75 µg/mL
- MIC ([1]; [PMBN] 200, Table 4a): 1.5 µg/mL
- MIC ([1]; [PMBN] 300, Table 4a): 0.5 µg/mL
- MIC ([2]; [PMBN] 0, Table 4a): 4 µg/mL
- MIC ([2]; [PMBN] 100, Table 4a): 2 µg/mL
- MIC ([2]; [PMBN] 200, Table 4a): 0.25 µg/mL
- MIC ([2]; [PMBN] 300, Table 4a): 0.25 µg/mL
- MIC ([3]; [PMBN] 0, Table 4a): > 32 µg/mL
- MIC ([3]; [PMBN] 100, Table 4a): > 32 µg/mL
- MIC ([3]; [PMBN] 200, Table 4a): > 32 µg/mL
- MIC ([3]; [PMBN] 300, Table 4a): > 32 µg/mL
- MIC ([4]; [PMBN] 0, Table 4a): >32
- MIC ([4]; [PMBN] 100, Table 4a): 2
- MIC ([4]; [PMBN] 200, Table 4a): 0.75
- MIC ([4]; [PMBN] 300, Table 4a): 0.25
- MIC ([5]; [PMBN] 0, Table 4a): 6 µg/mL
- MIC ([5]; [PMBN] 100, Table 4a): > 32 µg/mL
- MIC ([5]; [PMBN] 200, Table 4a): > 32 µg/mL
- MIC ([5]; [PMBN] 300, Table 4a): 4 µg/mL
- MIC ([6]; [PMBN] 0, Table 4a): 12 µg/mL
- MIC ([6]; [PMBN] 100, Table 4a): 2 µg/mL
- MIC ([6]; [PMBN] 200, Table 4a): 1 µg/mL
- MIC ([6]; [PMBN] 300, Table 4a): 0.75 µg/mL
- MIC ([7]; [PMBN] 0): 0.25 µg/mL
- MIC ([7]; [PMBN] 50 μg/ml): 0.25 µg/mL
- MIC ([7]; [PMBN] 100 μg/ml): 0.094 µg/mL
- MIC ([7]; [PMBN] 150 μg/ml): 0.064 µg/mL
- MIC ([7]; [PMBN] 200 μg/ml): 0.023 µg/mL
- MIC ([8]; [PMBN] 0, Table 4a): 2
- MIC ([8]; [PMBN] 100, Table 4a): 8
- MIC ([8]; [PMBN] 200, Table 4a): 6
- MIC ([8]; [PMBN] 300, Table 4a): 4-6
- MIC ([9]; [PMBN] 0, Table 4a): 0.5 µg/mL
- MIC ([9]; [PMBN] 100, Table 4a): 0.5 µg/mL
- MIC ([9]; [PMBN] 200, Table 4a): 0.25 µg/mL
- MIC ([9]; [PMBN] 300, Table 4a): 0.25 µg/mL
- MIC ([10]; [PMBN] 0, Table 4a): 32 µg/mL
- MIC ([10]; [PMBN] 100, Table 4a): 16 µg/mL
- MIC ([10]; [PMBN] 200, Table 4a): 6 µg/mL
- MIC ([10]; [PMBN] 300, Table 4a): 4 µg/mL
- MIC ([11]; [PMBN] 0, Table 4a): 4
- MIC ([11]; [PMBN] 100, Table 4a): 0.75-1
- MIC ([11]; [PMBN] 200, Table 4a): 1
- MIC ([11]; [PMBN] 300, Table 4a): 0.75
- MIC ([12]; [PMBN] 0, Table 4a): 0.38 µg/mL
- MIC ([12]; [PMBN] 100, Table 4a): 1.5 µg/mL
- MIC ([12]; [PMBN] 200, Table 4a): 1 µg/mL
- MIC ([12]; [PMBN] 300, Table 4a): 1.5 µg/mL
- MIC ([13]; [PMBN] 0, Table 4a): 0.75 µg/mL
- MIC ([13]; [PMBN] 100, Table 4a): 0.5 µg/mL
- MIC ([13]; [PMBN] 200, Table 4a): 0.38 µg/mL
- MIC ([13]; [PMBN] 300, Table 4a): 0.38 µg/mL
- MIC ([14]; [PMBN] 0, Table 4a): 4 µg/mL
- MIC ([14]; [PMBN] 100, Table 4a): 2 µg/mL
- MIC ([14]; [PMBN] 200, Table 4a): 2 µg/mL
- MIC ([14]; [PMBN] 300, Table 4a): 1.5 µg/mL
- MIC ([15]; [PMBN] 0, Table 4a): 3 µg/mL
- MIC ([15]; [PMBN] 100, Table 4a): 3 µg/mL
- MIC ([15]; [PMBN] 200, Table 4a): 1.5 µg/mL
- MIC ([15]; [PMBN] 300, Table 4a): 2 µg/mL
- MIC ([16]; [PMBN] 0, Table 4): 3 µg/mL
- MIC ([16]; [PMBN] 50 μg/ml): 2 µg/mL
- MIC ([16]; [PMBN] 100 μg/ml): 1.5 µg/mL
- MIC ([16]; [PMBN] 150 μg/ml): 0.75 µg/mL
- MIC ([16]; [PMBN] 200 μg/ml): 0.75 µg/mL
- MIC (E. coli SAB 100 (porin−); [PMBN] 0): 0.125 µg/mL
- MIC (E. coli SAB 100 (porin−); [PMBN] 50 μg/ml): 0.094 µg/mL
- MIC (E. coli SAB 100 (porin−); [PMBN] 100 μg/ml): 0.047 µg/mL
- MIC (E. coli SAB 100 (porin−); [PMBN] 150 μg/ml): 0.032 µg/mL
- MIC (E. coli SAB 100 (porin−); [PMBN] 200 μg/ml): 0.032 µg/mL
